Experimental data: patent publication US12194039B2, “Methods of treating heart failure by administering omecamtiv mecarbil” (Cytokinetics, Inc., priority 2020, dated 2025)
“And” between values parts separate entries of the source, which are not always exact repeats. Identical values can stand only once. “Also recorded” adds a separate entry of the source. Like-named read-outs stand apart in the source and are kept apart here.

Legend:
[1] = system: patients with HFrEF by baseline NT-proBNP (no AF/F and all randomized); conditions: for 1° Outcome (time to HF hospitalization or CV death), HR / All-cause death, HR / Hospitalization for HF, HR / NT-proBNP change from baseline to 24 weeks, Ratio: OM vs placebo
Protocol: Here we report the effect of omecamtiv mecarbil according to baseline NT-proBNP level in patients without AF/F and in the overall population. In addition, we describe the effect of omecamtiv mecarbil using NT-proBNP as a continuous as well as a categorical measure and describe the effect of omecamtiv mecarbil on NT-proBNP level.
NT-proBNP was measured at baseline and at 2, 6, 24, 48 and 96 weeks after randomization. Plasma NT-proBNP was measured in a central laboratory (Q Squared Solutions) using the Roche Elecsys NT-proBNP two-site electrochemiluminescence immunoassay (analytical range 50-35000 pg/m L).
Baseline characteristics were summarized as frequencies with percentages, means with standard deviation (SD), or medians with interquartile ranges. Differences in baseline characteristics were tested using the Cochrane-Armitage trend test for categorical variables and the analysis of variance test for continuous variables. The difference between treatment groups in NT-proBNP at the time points after randomization in surviving patients was analyzed using an analysis of covariance model, with treatment-group assignment as a fixed-effect factor and baseline NT-proBNP as a covariate. […] Time-to-event data were evaluated with Kaplan-Meier estimates and Cox proportional-hazards models with baseline hazards stratified by randomization setting and region and with treatment group and baseline eGFR as covariates. The safety analyses were performed in patients who underwent randomization and received at least one dose of omecamtiv mecarbil or placebo. […] A P-value of 0.05 was considered statistically significant.

[2] = system: patients with heart failure and reduced ejection fraction; type: in vivo, human; conditions: for Creatinine, change from baseline, mean / Heart rate, change from baseline, mean / Potassium, change from baseline, mean / Systolic blood pressure, change from baseline, mean / Troponin, change from baseline, median: N = 4110
Protocol: All eligible participants were randomized 1:1 to oral administration of either placebo or omecamtiv mecarbil (pharmacokinetic-guided dosing: 25, 37.5 or 50 mg) twice daily. Pre-dose plasma concentrations of omecamtiv mecarbil were measured at weeks 2 and 6 with respective dose adjustments on weeks 4 and 8. The patient and investigator were blinded to the plasma concentrations and dispensed dose. The full schedule of assessments is provided in the protocol available at NEJM.org. Study drug was temporarily withheld if the participant experienced clinical signs or symptoms consistent with acute myocardial infarction or ischemia.
Other outcomes of interest included the effects of omecamtiv mecarbil on vital signs and selected laboratory values (Table 3).
Continuous variables were summarized as means±standard deviations (SD) or medians and first and third quartiles (Q1, Q3), as appropriate. Categorical variables were summarized as counts and percentages. […] The change from baseline on NT-proBNP analysis included all participants who underwent randomization. The difference column is the exponentiated change from baseline on the log scale using a mixed model containing the log baseline value, region, baseline eGFR, scheduled visit, treatment group and interaction of treatment with scheduled visit.

[3] = Pharmacokinetics in patients with hepatic impairment; type: in vivo, human; conditions: single dose 25 mg; mild (Child-Pugh A) or moderate (Child-Pugh B) hepatic impairment; result in words
Protocol: The pharmacokinetics of a single dose of OM 25 mg were evaluated in patients with mild (Child-Pugh A) or moderate (Child-Pugh B) hepatic impairment. The pharmacokinetics (Cmax and AUC) of OM in patients with mild or moderate hepatic impairment were similar to those in patients with normal hepatic function.

[4] = Clinical pharmacokinetics: distribution and elimination; conditions: human, in vivo
Description: The volume of distribution at steady state was approximately 4.8-6.6 L/kg.
Clearance of OM after oral administration was primarily through metabolism in the liver. […] Following oral administration of radiolabeled OM to healthy subjects, approximately 49% of the dose was excreted in urine (primarily as metabolites with 8% of parent compound recovered) and 38% in feces (primarily as unchanged drug).

[5] = All patients, baseline NT-proBNP >median
[6] = All patients, baseline NT-proBNP >median, OM n = 2034
[7] = All patients, baseline NT-proBNP ≤median
[8] = All patients, baseline NT-proBNP ≤median, OM n = 2073
[9] = No AF/F, baseline NT-proBNP >median
[10] = No AF/F, baseline NT-proBNP >median, OM n = 1489
[11] = No AF/F, baseline NT-proBNP ≤median
[12] = No AF/F, baseline NT-proBNP ≤median, OM n = 1476
[13] = patients without AF/F, baseline NT-proBNP>median

For COC(=O)N1CCN(Cc2cccc(NC(=O)Nc3ccc(C)nc3)c2F)CC1 [omecamtiv mecarbil], the “NT-proBNP at 24 wks” value [1, 5] was 2809 pg/mL, the “1° Outcome (time to HF hospitalization or CV death), %” value (“1° Outcome … %” below) [1, 6] was “(48) %” and the “1° Outcome (time to HF hospitalization or CV death), Rate” value (“1° Outcome … Rate” for short) [1, 6] was 36.52 per 100 person-years. The “All-cause Death (%)” value [1, 6] was “(36) %”, the “All-cause Death Rate” value [1, 6] was 21.87 per 100 person-years and the “Hospitalization for HF, %” value [1, 6] was “(37) %”. For the same compound, the “Hospitalization for HF, Rate” value [1, 6] was 27.93 per 100 person-years, the “1° Outcome (time to HF hospitalization or CV death), HR” value (“1° Outcome … HR” for short) [1, 5] was 0.88 and the “All-cause death, HR” value [1, 5] was 0.97. The “Hospitalization for HF, HR” value [1, 5] was 0.88, the “NT-proBNP change from baseline to 24 weeks, Ratio” value (shortened to “NT-proBNP change … Ratio”) [1, 5] was 0.84 and the “NT-proBNP at 24 wks” value [1, 7] was 772 pg/mL. The “1° Outcome … %” value [1, 8] was “(26) %”, the “1° Outcome … Rate” value [1, 8] was 15.00 per 100 person-years and the “All-cause Death (%)” value [1, 8] was “(16) %”. For the same compound, the “All-cause Death Rate” value [1, 8] was 8.11 per 100 person-years, the “Hospitalization for HF, %” value [1, 8] was “(20) %” and the “Hospitalization for HF, Rate” value [1, 8] was 11.84 per 100 person-years. For the same compound, the “1° Outcome … HR” value [1, 7] was 1.02, the “All-cause death, HR” value [1, 7] was 1.10 and the “Hospitalization for HF, HR” value [1, 7] was 1.04. For the same compound, the “NT-proBNP change … Ratio” value [1, 7] was 0.95, the “NT-proBNP threshold at which the favorable effect emerged” value ([1]; NT-proBNP as a continuous measure, patients without AF/F) was “around 2,000 pg/mL” and the “NT-proBNP at 24 wks” value [1, 9] was 2302 pg/mL. The “1° Outcome … %” value [1, 10] was “(44) %”, the “1° Outcome … Rate” value [1, 10] was 31.30 per 100 person-years and the “All-cause Death (%)” value [1, 10] was “(32) %”. For the same compound, the “All-cause Death Rate” value [1, 10] was 18.67 per 100 person-years, the “Hospitalization for HF, %” value [1, 10] was “(32) %” and the “Hospitalization for HF, Rate” value [1, 10] was 23.26 per 100 person-years. For the same compound, the “1° Outcome … HR” value [1, 9] was 0.81, the “All-cause death, HR” value [1, 9] was 0.86 and the “Hospitalization for HF, HR” value [1, 9] was 0.79. For the same compound, the “NT-proBNP change … Ratio” value [1, 9] was 0.83, the “NT-proBNP at 24 wks” value [1, 11] was 614 pg/mL and the “1° Outcome … %” value [1, 12] was “(22) %”. The “1° Outcome … Rate” value [1, 12] was 12.42 per 100 person-years, the “All-cause Death (%)” value [1, 12] was “(13) %” and the “All-cause Death Rate” value [1, 12] was 6.74 per 100 person-years. For the same compound, the “Hospitalization for HF, %” value [1, 12] was “(17) %”, the “Hospitalization for HF, Rate” value [1, 12] was 9.62 per 100 person-years and the “1° Outcome … HR” value [1, 11] was 0.94. For the same compound, the “All-cause death, HR” value [1, 11] was 0.96, the “Hospitalization for HF, HR” value [1, 11] was 0.97 and the “NT-proBNP change … Ratio” value [1, 11] was 0.95. The “Effect on NT-proBNP by baseline NT-proBNP” value ([1]; baseline to 24 weeks, result in words) was “reduced NT-proBNP only in patients with a baseline value NT-proBNP greater than the median”, the “Adverse events compared to placebo” value ([1]; in vivo) was “no strong or consistent evidence that any adverse event was more common” and the “Effect on systolic blood pressure” value ([1]; in vivo) was “did not have a significant effect”. For the same compound, the “Effect on troponin I” value ([1]; in vivo) was “increased troponin I, significantly”, the “HR (heart rate) at 24 wks” value ([1]; in vivo) was 70 (11) bpm and 69 bpm and 70 (12) bpm and 70 bpm and the “Major cardiac ischemic events, RR” value ([1]; in vivo) was 1.16 (0.86, 1.56) and 1.10 (0.85, 1.43) and 1.08 (0.80, 1.47) and 0.99 (0.74, 1.33). For the same compound, the “Major cardiac ischemic events, number of patients” value ([1]; in vivo) was 86 (5.8) and 114 (5.5) and 83 (5.6) and 85 (4.2), the “Major cardiac ischemic events, value in parentheses” value ([1]; in vivo) was 86 (5.8) and 114 (5.5) and 83 (5.6) and 85 (4.2) and the “Reduction of heart rate” value ([1]; in vivo) was 1-2 beats per minute. For the same compound, the “SBP at 24 wks” value ([1]; in vivo) was 120 mmHg and 116 mmHg, the “Stroke, RR” value ([1]; in vivo) was 0.83 (0.49, 1.39) and 0.68 (0.44, 1.03) and 0.73 (0.45, 1.17) and 0.69 (0.46, 1.03) and the “Stroke, number of patients” value ([1]; in vivo) was 25 (1.7) and 36 (1.7) and 29 (2.0) and 40 (2.0). For the same compound, the “Stroke, value in parentheses” value ([1]; in vivo) was 25 (1.7) and 36 (1.7) and 29 (2.0) and 40 (2.0), the “Torsade/QT prolongation, RR” value ([1]; in vivo) was 0.84 (0.58, 1.23) and 0.88 (0.65, 1.19) and 1.01 (0.73, 1.39) and 0.94 (0.72, 1.23) and the “Troponin I change from baseline to 24 weeks, Ratio” value ([1]; in vivo) was 1.28 and 1.25 and 1.23. The “Ventricular tachyarrhythmia leading to treatment, RR” value ([1]; in vivo) was 0.67 (0.42, 1.07) and 0.86 (0.59, 1.25) and 1.15 (0.77, 1.72) and 1.02 (0.73, 1.42), the “Ventricular tachyarrhythmia, RR” value ([1]; in vivo) was 0.82 (0.62, 1.09) and 0.89 (0.71, 1.12) and 1.05 (0.82, 1.35) and 1.03 (0.83, 1.27) and the “Ventricular tachyarrhythmia, number of patients” value ([1]; in vivo) was 84 (6.7) and 130 (7.3) and 115 (8.6) and 160 (8.7). For the same compound, the “Ventricular tachyarrhythmia, value in parentheses” value ([1]; in vivo) was 84 (6.7) and 130 (7.3) and 115 (8.6) and 160 (8.7), the “Primary endpoint, hazard ratio” value ([1]; overall population, NT-proBNP less than or equal to the median) was 1.01 and the “Primary endpoint, hazard ratio” value ([1]; overall population, NT-proBNP>median) was 0.88. For the same compound, the “Primary outcome event rate compared with the placebo group” value ([1]; patients with AF/F at baseline, result in words) was “higher event rate”, the “Proportional reduction in NT-proBNP compared with placebo” value ([1]; patients with NT-proBNP greater than the median at baseline) was “approximately 17%” and the “Primary endpoint, hazard ratio” value ([1]; patients without AF/F, NT-proBNP greater than the median) was 0.81. For the same compound, the “Primary endpoint, hazard ratio” value ([1]; patients without AF/F, NT-proBNP less than or equal to the median) was 0.94, the “Benefit on primary endpoint” value ([1]; patients without AF/F, NT-proBNP≤median, result in words) was “no benefit” and the “Relative risk reduction in cardiovascular mortality” value [1, 13] was 13%. For the same compound, the “Relative risk reduction in heart failure hospitalization” value [1, 13] was 21%, the “Relative risk reduction in the primary endpoint” value [1, 13] was 18% and the “Treatment efficacy / benefit by baseline NT-proBNP level” value ([1]; result in words) was “higher treatment efficacy; also recorded: larger in patients with higher baseline NT-proBNP levels”. For the same compound, the “Creatinine, change from baseline, difference vs placebo” value ([2]; Week 24) was 0.007 mg/dL, the “Heart rate, change from baseline, difference vs placebo” value ([2]; Week 24) was −1.61 bpm and the “Potassium, change from baseline, difference vs placebo” value ([2]; Week 24) was 0.002 mmol/L. The “Systolic blood pressure, change from baseline, difference vs placebo” value ([2]; Week 24) was −0.13 mmHg, the “Creatinine, change from baseline, mean” value ([2]; Week 24) was 0.03 mg/dL and the “Heart rate, change from baseline, mean” value ([2]; Week 24) was −2.1 bpm. For the same compound, the “Potassium, change from baseline, mean” value ([2]; Week 24) was -0.01 mmol/L, the “Systolic blood pressure, change from baseline, mean” value ([2]; Week 24) was 1.4 mmHg and the “Troponin, change from baseline, median” value ([2]; Week 24) was 0.004 ng/mL. For the same compound, the “NT-proBNP, change from baseline, median” value ([2]; Week 24, all randomized participants) was -251 pg/mL, the “Troponin, change from baseline, difference vs placebo” value ([2]; Week 24, lower limit of quantification 0.010 ng/mL) was 0.004 ng/mL and the “NT-proBNP, exponentiated change from baseline on the log scale, omecamtiv mecarbil vs placebo” value ([2]; Week 24, mixed model) was 0.90. The “NT-proBNP concentrations compared to placebo” value ([2]; Week 24, result in words) was “significantly decreased”, the “Creatinine, change from baseline, difference vs placebo” value ([2]; Week 48) was 0.010 mg/dL and the “Heart rate, change from baseline, difference vs placebo” value ([2]; Week 48) was −1.75 bpm. For the same compound, the “Potassium, change from baseline, difference vs placebo” value ([2]; Week 48) was -0.007 mmol/L, the “Systolic blood pressure, change from baseline, difference vs placebo” value ([2]; Week 48) was 0.16 mmHg and the “Troponin, change from baseline, difference vs placebo” value ([2]; Week 48) was 0.002 ng/mL. For the same compound, the “Creatinine, change from baseline, mean” value ([2]; Week 48) was 0.06 mg/dL, the “Heart rate, change from baseline, mean” value ([2]; Week 48) was −2.0 bpm and the “Potassium, change from baseline, mean” value ([2]; Week 48) was -0.03 mmol/L. For the same compound, the “Systolic blood pressure, change from baseline, mean” value ([2]; Week 48) was 2.0 mmHg, the “Troponin, change from baseline, median” value ([2]; Week 48) was 0.002 ng/mL and the “Heart rate compared to placebo” value ([2]; at 24 and 48 weeks, result in words) was “small but significant decrease”. For the same compound, the “Change in systolic blood pressure, omecamtiv mecarbil vs placebo” value ([2]; at 24 or 48 weeks, result in words) was “no significant difference”, the “Potassium or creatinine concentrations compared to placebo” value ([2]; during the course of the trial, result in words) was “no change” and the “Pharmacokinetics (Cmax and AUC) versus normal hepatic function” value [3] was “similar”. The “Renal clearance as share of the systemic clearance” value [4] was “less than 10%”, the CL renal ([4]; oral, read-out: Mean renal clearance (converted)) was 16.7 mL/min and the clearance ([4]; oral, read-out: Total systemic clearance (converted)) was 195 mL/min. For the same compound, the half-life ([4]; patients with heart failure, read-out: Median half-life) was 23 to 32 h and the Vd ([4]; read-out: Volume of distribution at steady state) was 4.8 to 6.6 L/kg.
